According to PubChem BioAssay (NCI):
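In this assay, cells in 96-well plates receive the compound at five concentrations for 48 hours. Endpoints are linearly interpolated between the surrounding concentrations. GI50: concentration for 50% inhibition of growth. TGI denotes the concentration required for complete inhibition of growth.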

Key:
Test in all cases: NCI-60 cell line screen, 48 h
[1] = test system: MDA-MB-435
[2] = test system: HCT-116 colon
[3] = test system: UO-31 renal
[4] = test system: UACC-62 melanoma
[5] = test system: SW-620 colon
[6] = test system: SK-MEL-2 melanoma
[7] = test system: SF-268 CNS
[8] = test system: SK-OV-3 ovarian
[9] = test system: HOP-92 NSCLC
[10] = test system: A498 renal
[11] = test system: OVCAR-3 ovarian
[12] = test system: SF-539 CNS
[13] = test system: EKVX NSCLC
[14] = test system: MCF7 breast
[15] = test system: MALME-3M melanoma
[16] = test system: OVCAR-8 ovarian
[17] = test system: HT29 colon
[18] = test system: NCI-H226 lung
[19] = test system: LOX IMVI melanoma
[20] = test system: SR leukemia
[21] = test system: MDA-MB-231 breast
[22] = test system: NCI-H522 lung
[23] = test system: SNB-75 CNS
[24] = test system: HCC-2998 colon
[25] = test system: MOLT-4 leukemia
[26] = test system: A549 NSCLC
[27] = test system: NCI-H460 lung
[28] = test system: ACHN renal
[29] = test system: SF-295 CNS
[30] = test system: DU-145 prostate
[31] = test system: NCI/ADR-RES ovarian
[32] = test system: CCRF-CEM leukemia
[33] = test system: OVCAR-4 ovarian
[34] = test system: SK-MEL-28 melanoma
[35] = test system: RPMI-8226 leukemia
[36] = test system: M14 melanoma
[37] = test system: SNB-19 CNS
[38] = test system: 786-0 renal
[39] = test system: SN12C renal
[40] = test system: OVCAR-5 ovarian
[41] = test system: HL-60(TB) leukemia
[42] = test system: U251 CNS
[43] = test system: COLO 205 colon
[44] = test system: SK-MEL-5 melanoma
[45] = test system: HS 578T breast
[46] = test system: KM12 colon
[47] = test system: HCT-15 colon
[48] = test system: HOP-62 NSCLC
[49] = test system: UACC-257 melanoma
[50] = test system: K-562 leukemia
[51] = test system: CAKI-1 renal
[52] = test system: PC-3 prostate
[53] = test system: BT-549 breast
[54] = test system: TK-10 renal
[55] = test system: RXF 393 renal
[56] = test system: NCI-H23 lung
[57] = test system: T-47D breast
[58] = test system: IGROV1 ovarian

CN(C)CCNC(=O)Nc1c(C#N)[n+]([O-])c2cc(Cl)c(Cl)cc2[n+]1[O-]
GI50 [1]: 31 µM
TGI [1]: > 100 µM
GI50 [2]: 13.4 µM
TGI [2]: > 100 µM
GI50 [3]: 45 µM
TGI [3]: > 100 µM
GI50 [4]: 10.2 µM
TGI [4]: 66.5 µM
GI50 [5]: 17.4 µM
TGI [5]: 69.7 µM
GI50 [6]: 15.9 µM
TGI [6]: 50.6 µM
GI50 [7]: 9.47 µM
TGI [7]: > 100 µM
GI50 [8]: 21.1 µM
TGI [8]: 97.7 µM
GI50 [9]: 18.1 µM
TGI [9]: 99 µM
GI50 [10]: 51.6 µM
TGI [10]: > 100 µM
GI50 [11]: 21.4 µM
TGI [11]: 57 µM
GI50 [12]: 18.9 µM
TGI [12]: 47.3 µM
GI50 [13]: 36.8 µM
TGI [13]: > 100 µM
GI50 [14]: 18.5 µM
TGI [14]: > 100 µM
GI50 [15]: 21.6 µM
TGI [15]: > 100 µM
GI50 [16]: 21.4 µM
TGI [16]: > 100 µM
GI50 [17]: 27.3 µM
TGI [17]: > 100 µM
GI50 [18]: 22.3 µM
TGI [18]: > 100 µM
GI50 [19]: 18.3 µM
TGI [19]: > 100 µM
GI50 [20]: 13.4 µM
TGI [20]: > 100 µM
GI50 [21]: 19.9 µM
TGI [21]: 56.9 µM
GI50 [22]: 13.1 µM
TGI [22]: 35.3 µM
GI50 [23]: 14.7 µM
TGI [23]: > 100 µM
GI50 [24]: 27.4 µM
TGI [24]: > 100 µM
GI50 [25]: 3.92 µM
TGI [25]: 20.9 µM
GI50 [26]: 34 µM
TGI [26]: > 100 µM
GI50 [27]: 21.1 µM
TGI [27]: > 100 µM
GI50 [28]: 32.9 µM
TGI [28]: > 100 µM
GI50 [29]: 15 µM
TGI [29]: 84.8 µM
GI50 [30]: 25.4 µM
TGI [30]: > 100 µM
GI50 [31]: > 100 µM
TGI [31]: > 100 µM
GI50 [32]: 6.88 µM
TGI [32]: > 100 µM
GI50 [33]: 17.8 µM
TGI [33]: > 100 µM
GI50 [34]: 34.3 µM
TGI [34]: > 100 µM
GI50 [35]: 8.65 µM
TGI [35]: > 100 µM
GI50 [36]: 21.9 µM
TGI [36]: > 100 µM
GI50 [37]: 27.8 µM
TGI [37]: > 100 µM
GI50 [38]: 35.8 µM
TGI [38]: > 100 µM
GI50 [39]: 17.2 µM
TGI [39]: > 100 µM
GI50 [40]: 87.1 µM
TGI [40]: > 100 µM
GI50 [41]: 27.2 µM
TGI [41]: > 100 µM
GI50 [42]: 14.5 µM
TGI [42]: > 100 µM
GI50 [43]: 16.1 µM
TGI [43]: 46.3 µM
GI50 [44]: 14.3 µM
TGI [44]: 38.1 µM
GI50 [45]: 33.4 µM
TGI [45]: > 100 µM
GI50 [46]: 13.3 µM
TGI [46]: 43.1 µM
GI50 [47]: 41.4 µM
TGI [47]: > 100 µM
GI50 [48]: 34.2 µM
TGI [48]: > 100 µM
GI50 [49]: 36.5 µM
TGI [49]: > 100 µM
GI50 [50]: 29.3 µM
TGI [50]: > 100 µM
GI50 [51]: 37.6 µM
TGI [51]: > 100 µM
GI50 [52]: 18.4 µM
TGI [52]: > 100 µM
GI50 [53]: 10.7 µM
TGI [53]: 39.8 µM
GI50 [54]: 53.7 µM
TGI [54]: > 100 µM
GI50 [55]: 47.9 µM
TGI [55]: > 100 µM
GI50 [56]: 27 µM
TGI [56]: > 100 µM
GI50 [57]: 14.6 µM
TGI [57]: > 100 µM

O=P(O)(O)C(O)(Cn1ccnc1)P(=O)(O)O
GI50 [1]: > 100 µM
TGI [1]: > 100 µM
GI50 [2]: > 53.8 µM
TGI [2]: > 77.9 µM
GI50 [3]: > 68.3 µM
TGI [3]: > 100 µM
GI50 [4]: > 65.2 µM
TGI [4]: > 100 µM
GI50 [5]: > 100 µM
TGI [5]: > 100 µM
GI50 [6]: > 100 µM
TGI [6]: > 100 µM
GI50 [7]: > 100 µM
TGI [7]: > 100 µM
GI50 [8]: > 81.1 µM
TGI [8]: > 100 µM
GI50 [9]: > 41.7 µM
TGI [9]: > 100 µM
GI50 [10]: > 62.8 µM
TGI [10]: > 100 µM
GI50 [11]: > 66.1 µM
TGI [11]: > 100 µM
GI50 [12]: 20.3 µM
TGI [12]: > 100 µM
GI50 [13]: > 87.9 µM
TGI [13]: > 100 µM
GI50 [14]: > 86.4 µM
TGI [14]: > 100 µM
GI50 [15]: > 54.1 µM
TGI [15]: > 100 µM
GI50 [16]: > 92.3 µM
TGI [16]: > 100 µM
GI50 [17]: > 90.6 µM
TGI [17]: > 100 µM
GI50 [18]: > 75 µM
TGI [18]: > 100 µM
GI50 [19]: > 47 µM
TGI [19]: > 100 µM
GI50 [20]: > 100 µM
TGI [20]: > 100 µM
GI50 [21]: > 40.6 µM
TGI [21]: > 57 µM
GI50 [22]: > 100 µM
TGI [22]: > 100 µM
GI50 [23]: > 37.4 µM
TGI [23]: > 100 µM
GI50 [24]: 98.2 µM
TGI [24]: > 100 µM
GI50 [25]: > 100 µM
TGI [25]: > 100 µM
GI50 [26]: > 95.7 µM
TGI [26]: > 100 µM
GI50 [27]: > 100 µM
TGI [27]: > 100 µM
GI50 [28]: > 46.2 µM
TGI [28]: > 84.8 µM
GI50 [29]: > 100 µM
TGI [29]: > 100 µM
GI50 [30]: > 72.2 µM
TGI [30]: > 100 µM
GI50 [31]: > 64.1 µM
TGI [31]: > 100 µM
GI50 [32]: > 100 µM
TGI [32]: > 100 µM
GI50 [33]: > 100 µM
TGI [33]: > 100 µM
GI50 [34]: > 62.8 µM
TGI [34]: > 100 µM
GI50 [35]: 15.6 µM
TGI [35]: > 100 µM
GI50 [36]: > 53.3 µM
TGI [36]: > 100 µM
GI50 [37]: > 81.2 µM
TGI [37]: > 100 µM
GI50 [38]: 19 µM
TGI [38]: > 70 µM
GI50 [39]: > 57.7 µM
TGI [39]: > 100 µM
GI50 [40]: > 89.2 µM
TGI [40]: > 100 µM
GI50 [41]: > 71.2 µM
TGI [41]: > 100 µM
GI50 [42]: > 59.1 µM
TGI [42]: > 100 µM
GI50 [43]: > 100 µM
TGI [43]: > 100 µM
GI50 [44]: > 43 µM
TGI [44]: > 78 µM
GI50 [45]: 4.67 µM
TGI [45]: > 45.5 µM
GI50 [46]: > 79.3 µM
TGI [46]: > 100 µM
GI50 [47]: > 100 µM
TGI [47]: > 100 µM
GI50 [48]: > 55 µM
TGI [48]: > 100 µM
GI50 [58]: 53.5 µM
TGI [58]: > 100 µM
GI50 [49]: > 100 µM
TGI [49]: > 100 µM
GI50 [50]: > 100 µM
TGI [50]: > 100 µM
GI50 [51]: > 52.9 µM
TGI [51]: > 100 µM
GI50 [52]: > 59.8 µM
TGI [52]: > 100 µM
GI50 [53]: > 34.4 µM
TGI [53]: > 100 µM
GI50 [54]: > 36.2 µM
TGI [54]: > 100 µM
GI50 [55]: > 70.5 µM
TGI [55]: > 100 µM
GI50 [56]: > 89.7 µM
TGI [56]: > 100 µM
GI50 [57]: > 79 µM
TGI [57]: > 100 µM
